Test results: patent US9138466B2, “Factor H for transplantation” (Baxter International Inc., priority 2013, dated 2015)
Values joined by “and” are separate entries in the source; they are usually repeats but may differ in a detail not shown here. Identical values can stand only once. Like-named read-outs stand apart in the source and are kept apart here. Marks after values point to notes of the source that are not given here.

Legend:
Format in all cases: in vivo
[1] = system: collagen antibody-induced arthritis in Balb C mice; assay: Mouse CAIA, clinical score (Example 4); design: key to Mean Maximum Clinical Score: scored 0 to 60, sum of 4 limbs
[2] = system: collagen antibody-induced arthritis in Balb C mice; assay: Mouse CAIA, hind paw volume / footpad swelling (Example 4); design: Mean Disease Burden / Hind Limb Volume, Mean Diff. / Total Disease, Mean Diff.: unit not given here; conditions: for Total Footpad Thickness, Day of Study 8: day 8; for Total Footpad Thickness, Day of Study 11: day 11; for Total Footpad Thickness, Day of Study 12: day 12; for Total Footpad Thickness, Day of Study 13: day 13; for Total Footpad Thickness, Day of Study 15: day 15; for Total Footpad Thickness, Day of Study 19: day 19; for Total Footpad Thickness, Day of Study 22: day 22; for % Disease Suppression: footpad thickness AUC vs vehicle; for Total Disease Burden (AUC): footpad thickness days 8-22, in mL·day
[3] = Mouse CAIA, body weight and tolerability (Example 4)
Protocol: Balb C mice (n=10 per cohort) were used to determine the efficacy of Factor H (FH) during transplant rejection. The mice were treated with ArthritoMAb (anti-collagen) antibody cocktail (2 mg, i.v.) on day 1, followed 7 days later with an injection of LPS (50 μg, i.p.). On day 8, hind paw volumes were measured for each animal and distributed to various treatment groups.
Hind paw volumes were measured on day 8, 11, 12, 13, 15, 19 and 22 (endpoint). The age at start date was 7 to 9 weeks. Body weights were measured bi-weekly to the endpoint (Table 4). At the endpoint, tissue samples were processed for histology and submitted to a pathologist for independent analysis. Sampling 1 was performed at the endpoint. The hind limbs were preserved in 10% formalin. Sampling 2 was performed at the endpoint for group 4 animals. Blood was collected by terminal cardiac puncture. The blood was processed for anti-coagulant. The kidneys were additionally preserved in formalin and followed with 70% EtOH. Samples were scored for inflammation, pannus (granulation tissue), cartilage damage, bone resorption and exostosis (Table 5).

[4] = system: collagen antibody-induced arthritis in Balb C mice; assay: Mouse CAIA, histopathology of hind limbs (ankle, H & E) (Example 4)
[5] = Dunn's Multiple Comparison Test, G1 vehicle vs treatment
[6] = Dunnett's Multiple Comparison Test, G1 vehicle vs treatment
[7] = Dunnett's Multiple Comparison Test, vehicle vs treatment
[8] = ankle, group mean, score 0 = normal to 5 = severe
[9] = ankle, individual animal, score 0 = normal to 5 = severe
[10] = ankle, individual animal, score 0 = normal to 5 = severe, listed as Group 2

## C[C@@H]1C[C@H]2[C@@H]3CCC4=CC(=O)C=C[C@]4(C)[C@@]3(F)[C@@H](O)C[C@]2(C)[C@@]1(O)C(=O)CO [Dexamethasone]
[1]; [5]
  Clinical Score, Difference in rank sum: 23.95
  Clinical Score, Summary: *** (***= P < 0.001)
[1]; day 8, group mean n=10
  Clinical score, Mean: 4.00
[1]; day 8, individual animal
  Clinical score: 5 (2×) and 10 (3×) and 0 (5×)
[1]; day 11, group mean n=10
  Clinical score, Mean: 0.10
[1]; day 11, individual animal
  Clinical score: 0 (9×) and 1
[1]; day 12, group mean n=10
  Clinical score, Mean: 5.70
[1]; day 12, individual animal
  Clinical score: 0 (3×) and 10 (4×) and 5 (2×) and 7
[1]; day 13, group mean n=10
  Clinical score, Mean: 6.00
[1]; day 13, individual animal
  Clinical score: 0 (4×) and 10 (6×)
[1]; day 15, group mean n=10
  Clinical score, Mean: 0.00
[1]; day 15, individual animal
  Clinical score: 0
[1]; day 19, group mean n=10
  Clinical score, Mean: 0.00
[1]; day 19, individual animal
  Clinical score: 0
[1]; day 22, group mean n=10
  Clinical score, Mean: 0.00
[1]; day 22, individual animal
  Clinical score: 0
[1]; group line 'Mean', day of study
  Day (of Max Clin Score), Mean: 12.00
[1]; group mean n=10
  Max Clin Score, Mean: 9.20
[1]; individual animal
  Max Clin Score: 5 and 10 (8×) and 7
[1]; individual animal, day of study
  Day (of Max Clin Score): 8 (4×) and 13 (2×) and 12 (4×)
[1]; scored from 0 to 60, sum of 4 limbs, vehicle 45.4
  Mean Maximum Clinical Score: 9.2***
[2]; AUC of combined footpad volume over baseline, days 8 to 22, group mean, vehicle 1.93
  Mean Disease Burden: −0.32***
[2]; [6]
  Total Disease, 95% CI of diff: 1.50 to 3.00
  Total Disease, Mean Diff.: 2.25
  Total Disease, Summary: *** (***= P < 0.001)
  Total Disease, q: 7.36
[2]; [7]
  Hind Limb Volume, 95% CI of diff: 0.09687 to 0.2080
  Hind Limb Volume, Mean Diff.: 0.1524
  Hind Limb Volume, Summary: *** (***= P < 0.001)
  Hind Limb Volume, q: 6.877
[2]; group mean, n 10
  Total Footpad Thickness, Day of Study 8: 0.35 mL
  Total Footpad Thickness, Day of Study 11: 0.32 mL
  Total Footpad Thickness, Day of Study 12: 0.34 mL
  Total Footpad Thickness, Day of Study 13: 0.33 mL
  Total Footpad Thickness, Day of Study 15: 0.31 mL
  Total Footpad Thickness, Day of Study 19: 0.34 mL
  Total Footpad Thickness, Day of Study 22: 0.31 mL
  % Disease Suppression: 116.49%
  Total Disease Burden (AUC): −0.32
[2]; individual animals (A# 1-10)
  Total Footpad Thickness, Day of Study 8: 0.42 mL and 0.39 mL (2×) and 0.37 mL and 0.35 mL and 0.34 mL and 0.33 mL and 0.31 mL (2×) and 0.3 mL
  Total Footpad Thickness, Day of Study 11: 0.30 mL and 0.34 mL and 0.32 mL (3×) and 0.3 mL (3×) and 0.35 mL and 0.31 mL
  Total Footpad Thickness, Day of Study 12: 0.34 mL (4×) and 0.28 mL and 0.35 mL and 0.32 mL and 0.31 mL and 0.39 mL and 0.37 mL
  Total Footpad Thickness, Day of Study 13: 0.31 mL (2×) and 0.3 mL (2×) and 0.36 mL and 0.38 mL (2×) and 0.33 mL and 0.35 mL and 0.29 mL
  Total Footpad Thickness, Day of Study 15: 0.37 mL and 0.33 mL and 0.29 mL (3×) and 0.38 mL and 0.26 mL and 0.3 mL (2×) and 0.27 mL
  Total Footpad Thickness, Day of Study 19: 0.35 mL (4×) and 0.28 mL and 0.3 mL and 0.38 mL and 0.37 mL and 0.32 mL and 0.0 mL
  Total Footpad Thickness, Day of Study 22: 0.39 mL and 0.42 mL and 0.3 mL and 0.32 mL and 0.29 mL (2×) and 0.35 mL (2×) and 0.31 mL and 0.25 mL
  % Disease Suppression: 139.7% and 129.0% and 162.5% and 125.0% and 114.5% and 102.9% and 104.7% and 87.3% and 96.1% and 101.3%
  Total Disease Burden (AUC): −0.77 and −0.51 and −1.21 and −0.54 and −0.28 and −0.06 and −0.09 and 0.25 and 0.10 and −0.02
[2]; mean combined foot pad volume, day 8 vs median day of maximal swelling, vehicle 0.21
  Maximum Δ Mean Volume: 0.03*** ml
[2]; percent decrease in total disease burden relative to vehicle
  % Disease Suppression (vs Vehicle): 116.5%
[3]; day 1, group mean n=10, before dosing start (day 8)
  Body Weight, Wt (g), Mean: 17.7 g
[3]; day 5, group mean n=10, before dosing start (day 8)
  Body Weight, Wt (g), Mean: 17.9 g
[3]; day 8, group mean n=10
  Body Weight, Wt (g), Mean: 16.3 g
[3]; day 12, group mean n=10
  Body Weight, Wt (g), Mean: 16.8 g
[3]; day 15, group mean n=10
  Body Weight, Wt (g), Mean: 16.7 g
[3]; day 19, group mean n=10
  Body Weight, Wt (g), Mean: 16.5 g
[3]; day 22, group mean n=10
  Body Weight, Wt (g), Mean: 16.5 g
[3]; lowest group mean body weight as % change from day 1, vehicle −8.0%
  Mean Body Weigh at Nadir: −7.7%
[4]
  Score From H & E, Bone Resorption: 0.8 ± 0.9
[4]; [5]
  Cartilage, Difference in rank sum: 9.25
  Composite, Difference in rank sum: 14.05
  Composite, Summary: * (*= P < 0.05)
  Exostosis, Difference in rank sum: 13.1
  Exostosis, Summary: ** (**= P < 0.01)
  Inflammation, Difference in rank sum: 14.95
  Inflammation, Summary: ** (**= P < 0.01)
  Pannus, Difference in rank sum: 11.4
[4]; ankle, group mean
  Composite Histopathaligy Score: 0.2 ± 0.1
[4]; [8]
  Score From H & E, Cartilage Damage: 0.9 ± 0.8
  Score From H & E, Inflammation: 0.3 ± 0.1
  Score From H & E, Pannus: 0.1 ± 0.1
  Score From H & E, Periosteal Exostotic Changes: 0.9 ± 0.8
[4]; [9]
  Score From H & E, Bone Resorption: 0
  Score From H & E, Cartilage Damage: 0
  Score From H & E, Periosteal Exostotic Changes: 0
[4]; [10]
  Score From H & E, Inflammation: 0 (9×) and 1
  Score From H & E, Pannus: 1 and 0 (9×)
[4]; ankle, individual animal, listed as Group 2
  Composite Histopathaligy Score: 3 and 0 (8×) and 1
[4]; histopathology summary, graded 1-5, vehicle 0.6 ± 0.3
  Bone Resorption: 0 ± 0^ns
[4]; histopathology summary, graded 1-5, vehicle 1.0 ± 0.3
  Pannus: 0.1 ± 0.1^ns
[4]; histopathology summary, graded 1-5, vehicle 2.0 ± 0.5
  Inflammation: 0.1 ± 0.1
[4]; histopathology summary, graded 1 to 5, vehicle 2.6 ± 0.5
  Exostosis: 0 ± 0
[4]; histopathology summary, vehicle 0.5 ± 0.2
  Cartilage Damage: 0 ± 0^ns
[4]; histopathology summary, vehicle 6.7 ± 1.7
  Composite Score: 0.2 ± 0.1
